One assay concerns the target T1, Orexin receptor type 2 (Homo sapiens, UniProt O43614).
T1 sequence (O43614 whole entry): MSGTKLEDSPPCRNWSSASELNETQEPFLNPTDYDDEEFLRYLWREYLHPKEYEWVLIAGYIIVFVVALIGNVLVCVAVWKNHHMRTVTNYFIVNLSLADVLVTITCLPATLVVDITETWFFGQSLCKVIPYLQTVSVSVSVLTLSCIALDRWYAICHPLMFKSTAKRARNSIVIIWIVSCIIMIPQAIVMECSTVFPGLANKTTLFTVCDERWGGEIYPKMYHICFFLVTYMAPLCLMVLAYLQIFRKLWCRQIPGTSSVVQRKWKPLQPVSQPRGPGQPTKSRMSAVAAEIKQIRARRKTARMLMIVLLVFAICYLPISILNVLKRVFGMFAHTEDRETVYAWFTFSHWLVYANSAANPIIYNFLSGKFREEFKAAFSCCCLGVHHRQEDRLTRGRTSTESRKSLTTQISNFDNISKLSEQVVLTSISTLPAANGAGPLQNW
The assay is described as follows: Effective agonist concentration to the human Orexin receptor type 2 was determined using the Xlfit program. The format is functional.

The target of assay [1] is T2, Orexin/Hypocretin receptor type 1 (Homo sapiens, UniProt O43613).
T2 sequence (O43613 whole entry): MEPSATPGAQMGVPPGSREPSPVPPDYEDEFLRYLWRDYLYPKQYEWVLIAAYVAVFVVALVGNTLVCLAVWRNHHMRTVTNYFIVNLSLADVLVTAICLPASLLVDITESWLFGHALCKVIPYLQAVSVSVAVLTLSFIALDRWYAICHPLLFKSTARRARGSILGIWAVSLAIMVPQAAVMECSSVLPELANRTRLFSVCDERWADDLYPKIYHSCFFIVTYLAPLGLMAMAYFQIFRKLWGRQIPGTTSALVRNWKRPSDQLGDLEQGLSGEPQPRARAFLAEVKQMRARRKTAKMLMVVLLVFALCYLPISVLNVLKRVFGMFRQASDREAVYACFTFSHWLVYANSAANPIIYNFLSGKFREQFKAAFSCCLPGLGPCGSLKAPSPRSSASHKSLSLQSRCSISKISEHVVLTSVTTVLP
The assay can be described thus: Effective agonist concentration to human orexin receptor type 1 determined using the Xlfit program. The format is functional.

Molecules are shown by their SMILES. pEC50: −log10 of the molar value. Residues, ends and D or L forms follow the SMILES beside them. Some results are limits rather than exact numbers.

Broadly, the pEC50 is the negative decadic logarithm of the EC50, by convention in mol/L. A low value points to a high EC50. As to `CC[C@H](C)[C@H](NC(=O)CNC(=O)[C@H](C)NC(=O)[C@H](C)NC(=O)[C@H](Cc1cnc[nH]1)NC(=O)[C@H](CC(N)=O)NC(=O)CNC(=O)[C@H](C)NC(=O)CNC(=O)[C@H](Cc1cnc[nH]1)NC(=O)[C@H](CC(C)C)NC(=O)[C@H](CC(C)C)NC(=O)[C@H](CCC(=O)O)NC(=O)[C@H](Cc1ccc(O)cc1)NC(=O)[C@H](CC(C)C)NC(=O)[C@H](CCCNC(=N)N)NC(=O)[C@H](CS)NC(=O)[C@H](CO)NC(=O)[C@H](CS)NC(=O)[C@@H](NC(=O)[C@H](CCCCN)NC(=O)[C@H](CCC(N)=O)NC(=O)[C@@H](N)CCCNC(=N)N)[C@@H](C)O)C(=O)N[C@@H](CC(C)C)C(=O)N[C@H](C(=O)N[C@@H](CC(C)C)C(=O)O)[C@@H](C)O` (H-RQKTCSCRLYELLHGAGNHAAGILTL-OH), the results for the pEC50 (on Orexin receptor type 2; in assay [1]) were 6.54 and 6.17, respectively.

`CC[C@H](C)[C@H](NC(=O)CNC(=O)[C@H](C)NC(=O)[C@H](C)NC(=O)[C@H](Cc1cnc[nH]1)NC(=O)[C@H](CC(N)=O)NC(=O)CNC(=O)[C@H](CO)NC(=O)[C@H](C)NC(=O)[C@H](CCC(N)=O)NC(=O)[C@H](CC(C)C)NC(=O)[C@H](CC(C)C)NC(=O)[C@H](CCCNC(=N)N)NC(=O)[C@H](CCC(N)=O)NC(=O)[C@H](CC(C)C)NC(=O)[C@H](CCCNC(=N)N)NC(=O)CNC(=O)[C@H](CCC(N)=O)NC(=O)[C@H](CC(C)C)NC(=O)[C@H](C)N)C(=O)N[C@@H](CC(C)C)C(=O)N[C@H](C(=O)N[C@@H](CCSC)C(=O)O)[C@@H](C)O` (H-ALQGRLQRLLQASGNHAAGILTM-OH): the results for the pEC50 (on Orexin receptor type 2; in assay [1]) were 6.24 and 5.50, respectively.

Take `CC[C@H](C)[C@H](NC(=O)CNC(=O)[C@H](C)NC(=O)[C@H](C)NC(=O)[C@H](Cc1c[nH]cn1)NC(=O)[C@H](CC(N)=O)NC(=O)CNC(=O)[C@@H](N)CO)C(=O)N[C@@H](CC(C)C)C(=O)N[C@H](C(=O)N[C@@H](CCSC)C(=O)O)[C@@H](C)O` (H-SGNHAAGILTM-OH): the pEC50 (on Orexin receptor type 2; in assay [1]) was below 3.00 throughout.

For `CSCC[C@H](NC(=O)[C@@H](NC(=O)[C@H](CC(C)C)NC(=O)[C@H](C)NC(=O)CNC(=O)[C@H](C)NC(=O)[C@H](C)NC(=O)[C@H](Cc1c[nH]cn1)NC(=O)[C@H](CC(N)=O)NC(=O)CNC(=O)[C@H](CO)NC(=O)[C@H](C)NC(=O)[C@H](CCC(N)=O)NC(=O)[C@H](CC(C)C)NC(=O)[C@H](CC(C)C)NC(=O)[C@H](CCCN=C(N)N)NC(=O)[C@H](CCC(N)=O)NC(=O)[C@H](CC(C)C)NC(=O)[C@H](CCCN=C(N)N)NC(=O)CNC(=O)[C@H](CCC(N)=O)NC(=O)[C@H](CC(C)C)NC(=O)CN)[C@@H](C)O)C(=O)O` (H-GLQGRLQRLLQASGNHAAGALTM-OH), the pEC50 (at Orexin receptor type 2; in assay [1]) was below 3.00 each time.

For `CC[C@H](C)[C@H](NC(=O)CNC(=O)[C@H](C)NC(=O)[C@H](C)NC(=O)[C@H](Cc1cnc[nH]1)NC(=O)[C@H](C)NC(=O)CNC(=O)[C@H](CO)NC(=O)[C@H](C)NC(=O)[C@H](CCC(N)=O)NC(=O)[C@H](CC(C)C)NC(=O)[C@H](CC(C)C)NC(=O)[C@H](CCCNC(=N)N)NC(=O)[C@H](CCC(N)=O)NC(=O)[C@H](CC(C)C)NC(=O)[C@H](CCCNC(=N)N)NC(=O)CNC(=O)[C@H](CCC(N)=O)NC(=O)[C@H](CC(C)C)NC(=O)CN)C(=O)N[C@@H](CC(C)C)C(=O)N[C@H](C(=O)N[C@@H](CCSC)C(=O)O)[C@@H](C)O` (stereo in doubt; form 2), the pEC50 at Orexin receptor type 2 was 6.49; in assay [1] it was 5.66.

Regarding `CC(C)C[C@H](NC(=O)CNC(=O)[C@@H]1CCCN1C(=O)[C@@H]1CCCN1C(=O)CNC(=O)[C@H](CO)NC(=O)[C@@H](N)CCCN=C(N)N)C(=O)N[C@@H](CCC(N)=O)C(=O)NCC(=O)N[C@@H](CCCN=C(N)N)C(=O)O` (H-RSGPPGLQGR-OH), the pEC50 (at Orexin receptor type 2; in assay [1]) was below 3.00 in each case.

Turning to `CC[C@H](C)[C@H](NC(=O)CNC(=O)[C@H](C)NC(=O)[C@H](C)NC(=O)[C@H](Cc1cnc[nH]1)NC(=O)[C@H](CC(N)=O)NC(=O)CNC(=O)[C@H](CO)NC(=O)[C@H](C)NC(=O)[C@H](CCC(N)=O)NC(=O)[C@H](CC(C)C)NC(=O)[C@H](CC(C)C)NC(=O)[C@H](CCCNC(=N)N)NC(=O)[C@H](CCC(N)=O)NC(=O)[C@H](CC(C)C)NC(=O)[C@@H](N)CCCNC(=N)N)C(=O)N[C@@H](CC(C)C)C(=O)N[C@H](C(=O)N[C@@H](CCSC)C(=O)O)[C@@H](C)O` (H-RLQRLLQASGNHAAGILTM-OH), the pEC50 at Orexin receptor type 2 was 6.24; in assay [1], below 3.00.

Turning to `CC(C)C[C@H](NC(=O)[C@@H]1CCCN1C(=O)[C@@H]1CCC(=O)N1)C(=O)N1CCC[C@H]1C(=O)N[C@@H](CC(=O)O)C(=O)N[C@@H](CS)C(=O)N[C@@H](CS)C(=O)N[C@@H](CCCN=C(N)N)C(=O)N[C@@H](CCC(N)=O)C(=O)N[C@@H](CCCCN)C(=O)N[C@H](C(=O)N[C@@H](CS)C(=O)N[C@@H](CO)C(=O)O)[C@@H](C)O`, the pEC50 (on Orexin receptor type 2; in assay [1]) was below 3.00 in each case.

`CC[C@H](C)[C@H](NC(=O)CNC(=O)[C@H](C)NC(=O)[C@H](C)NC(=O)[C@@H]1CCCN1C(=O)[C@H](CC(N)=O)NC(=O)CNC(=O)[C@H](CO)NC(=O)[C@H](C)NC(=O)[C@H](CCC(N)=O)NC(=O)[C@H](CC(C)C)NC(=O)[C@H](CC(C)C)NC(=O)[C@H](CCCNC(=N)N)NC(=O)[C@H](CCC(N)=O)NC(=O)[C@H](CC(C)C)NC(=O)[C@H](CCCNC(=N)N)NC(=O)CNC(=O)[C@H](CCC(N)=O)NC(=O)[C@H](CC(C)C)NC(=O)CN)C(=O)N[C@@H](CC(C)C)C(=O)N[C@H](C(=O)N[C@@H](CCSC)C(=O)O)[C@@H](C)O` (H-GLQGRLQRLLQASGNPAAGILTM-OH): the pEC50 on Orexin receptor type 2 was 6.08; in assay [1], 5.72.

Consider `CC[C@H](C)[C@H](NC(=O)CNC(=O)[C@H](C)NC(=O)[C@H](C)NC(=O)[C@H](Cc1cnc[nH]1)NC(=O)[C@H](CC(N)=O)NC(=O)CNC(=O)[C@H](C)NC(=O)CNC(=O)[C@H](Cc1cnc[nH]1)NC(=O)[C@H](CC(C)C)NC(=O)[C@H](CC(C)C)NC(=O)[C@H](CCC(=O)O)NC(=O)[C@H](Cc1ccc(O)cc1)NC(=O)[C@H](CC(C)C)NC(=O)[C@H](CCCNC(=N)N)NC(=O)[C@H](CS)NC(=O)[C@H](CO)NC(=O)[C@H](CS)NC(=O)[C@@H](N)[C@@H](C)O)C(=O)N[C@@H](CC(C)C)C(=O)N[C@H](C(=O)N[C@@H](CC(C)C)C(=O)O)[C@@H](C)O` (H-TCSCRLYELLHGAGNHAAGILTL-OH), for which the results for the pEC50 (on Orexin receptor type 2; in assay [1]) were 6.42 and 5.92, respectively.

For the compound `CC(C)C[C@H](NC(=O)CNC(=O)[C@@H]1CCCN1C(=O)[C@@H]1CCCN1C(=O)CNC(=O)[C@H](CO)NC(=O)[C@@H](N)CCCN=C(N)N)C(=O)N[C@@H](CCC(N)=O)C(=O)NCC(=O)N[C@@H](CCCN=C(N)N)C(=O)N[C@@H](CC(C)C)C(=O)N[C@@H](CCC(N)=O)C(=O)N[C@@H](CCCN=C(N)N)C(=O)N[C@@H](CC(C)C)C(=O)N[C@@H](CC(C)C)C(=O)N[C@@H](CCC(N)=O)C(=O)O` (H-RSGPPGLQGRLQRLLQ-OH), the pEC50 (at Orexin receptor type 2; in assay [1]) was below 3.00 in each case.

For the origin of these results see ChEMBL document CHEMBL1148480, “Structure-activity studies of orexin a and orexin B at the human orexin 1 and orexin 2 receptors led to orexin 2 receptor selective and orexin 1 receptor preferring ligands” (J Med Chem, 2004).
